Data from patent US11986532B2 (Arvinas Operations, Inc., priority 2021, dated 2024).
Where two headings read alike, the source gives them in different places.

Target: T1, BCL6 (Homo sapiens, UniProt P41182)
T1 construct: endogenous in cells; host or cells: T47D breast cancer epithelial cells
Test: Immunofluorescence protocol for high content imaging of BCL6 (degradation) in T47D cells, 3 days compound treatment
Format: cell-based
Conditions: for Dmax: read-out: Mean Dmax (%)** category; for DC50: read-out: Mean DC50 (nM)* category
Summary of the method: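 For degradation, compound series (3-fold, 11 points, top 0.1 or 1 μM final) were added to adherent T47D cultures for 3 days. BCL6 immunostaining used a rabbit antibody at 1:300 and an Alexa-488 secondary, with imaging at 10× magnification.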

[1] = T47D cells, 3 days compound treatment

SMILES	Dmax (T47D)	DC50	DC50 [1]	Dmax [1]
CNC(=O)COc1cc2cc(Nc3nc(N4CCC(O[C@H]5C[C@H](N6C7CCC6CN(c6ccc8c(c6F)CN(C6CCC(=O)NC6=O)C8=O)C7)C5)CC4)ncc3Cl)ccc2n(C(C)C)c1=O (stereo partly shown) [Compound 406, 2-({6-[(5-chloro-2-{4-[(1r,3r)-3-{3-[2-(2,6-dioxopiperidin-3-yl)-4-fluoro-1-oxo-2,3-dihydro-1H-isoindol-5-yl]-3,8-diazabicyclo [3.2.1]octan-8-yl}cyclobutoxy]piperidin-1-yl}pyrimidin-4-yl)amino]-2-oxo-1-(propan-2-yl)-1,2-dihydroquinolin-3-yl}oxy)-N-methylacetamide]	50 to 70%	< 10 nM		
CNC(=O)COc1cc2cc(Nc3nc(N4CCC(CN5CCC6(CN(c7ccc8c(c7)C(=O)N(C7CCC(=O)NC7=O)C8=O)C6)CC5(C)C)CC4)ncc3Cl)ccc2n(C(C)C)c1=O (stereo not shown) [Compound 239, 2-{[6-({5-chloro-2-[4-({2-[2-(2,6-dioxopiperidin-3-yl)-1,3-dioxo-2,3-dihydro-1H-isoindol-5-yl]-6,6-dimethyl-2,7-diazaspiro[3.5]nonan-7-yl}methyl)piperidin-1-yl]pyrimidin-4-yl}amino)-2-oxo-1-(propan-2-yl)-1,2-dihydroquinolin-3-yl]oxy}-N-methylacetamide]	≥ 70%	< 10 nM		
CNC(=O)COc1cc2cc(Nc3nc(N4CCC(O[C@H]5C[C@H](N6CCC(c7ccc8c(c7F)[C@H](C)N([C@H]7CCC(=O)NC7=O)C8=O)CC6)C5)CC4)ncc3Cl)ccc2n(C(C)C)c1=O [Compound 290, 2-({6-[(5-chloro-2-{4-[(1r,3r)-3-{4-[(3S)-2-[(3S)-2,6-dioxopiperidin-3-yl]-4-fluoro-3-methyl-1-oxo-2,3-dihydro-1H-isoindol-5-yl]piperidin-1-yl}cyclobutoxy]piperidin-1-yl}pyrimidin-4-yl)amino]-2-oxo-1-(propan-2-yl)-1,2-dihydroquinolin-3-yl}oxy)-N-methylacetamide]	≥ 70%	< 10 nM		
CNC(=O)COc1cc2cc(Nc3cc(N4CCC(CN5CCC6(CC5)CN(c5ccc7c(c5)C(=O)N(C5CCC(=O)NC5=O)C7=O)C6)CC4)ncc3Cl)ccc2n(C(C)C)c1=O (stereo not shown) [Compound 215, 2-{[6-({5-chloro-2-[4-({2-[2-(2,6-dioxopiperidin-3-yl)-1,3-dioxoisoindol-5-yl]-2,7-diazaspiro[3.5]nonan-7-yl}methyl)piperidin-1-yl]pyridin-4-yl}amino)-1-isopropyl-2-oxoquinolin-3-yl]oxy}-N-methylacetamide]	50 to 70%	10 to 50 nM		
CNC(=O)COc1cc2cc(Nc3nc(N4CCC(O[C@H]5C[C@H](N6CCC(c7ccc8c(c7)C(=O)N(C7CCC(=O)NC7=O)C8=O)C(F)(F)C6)C5)CC4)ncc3Cl)ccc2n(C(C)C)c1=O (stereo partly shown) [Compound 137, 2-({6-[(5-chloro-2-{4-[(1r,3r)-3-{4-[2-(2,6-dioxopiperidin-3-yl)-1,3-dioxo-2,3-dihydro-1H-isoindol-5-yl]-3,3-difluoropiperidin-1-yl}cyclobutoxy]piperidin-1-yl}pyrimidin-4-yl)amino]-2-oxo-1-(propan-2-yl)-1,2-dihydroquinolin-3-yl}oxy)-N-methylacetamide]			≥ 100 nM	≥ 70%
CNC(=O)COc1cc2cc(Nc3nc(N4CCC(F)(CN5CC6(CCN(c7ccc8c(c7)CN(C7CCC(=O)NC7=O)C8=O)CC6)C5)CC4)ncc3Cl)ccc2n(C(C)C)c1=O (stereo not shown) [Compound 122, 2-{[6-({5-chloro-2-[4-({7-[2-(2,6-dioxopiperidin-3-yl)-1-oxo-2,3-dihydro-1H-isoindol-5-yl]-2,7-diazaspiro[3.5]nonan-2-yl}methyl)-4-fluoropiperidin-1-yl]pyrimidin-4-yl}amino)-2-oxo-1-(propan-2-yl)-1,2-dihydroquinolin-3-yl]oxy}-N-methylacetamide]			< 10 nM	50 to 70%
CNC(=O)COc1cc2cc(Nc3nc(N4CCC(F)(CN5CCC6(CC5)CN(c5cccc7c5C(=O)N(C5CCC(=O)NC5=O)C7=O)C6)CC4)ncc3Cl)ccc2n(C(C)C)c1=O (stereo not shown) [Compound 44, 2-{[6-({5-chloro-2-[4-({2-[2-(2,6-dioxopiperidin-3-yl)-1,3-dioxo-2,3-dihydro-1H-isoindol-4-yl]-2,7-diazaspiro [3.5]nonan-7-yl}methyl)-4-fluoropiperidin-1-yl]pyrimidin-4-yl}amino)-2-oxo-1-(propan-2-yl)-1,2-dihydroquinolin-3-yl]oxy}-N-methylacetamide]			< 10 nM	≥ 70%
CNC(=O)COc1cc2cc(Nc3nc(N4CCC(O[C@H]5C[C@H](N6CCN(c7ccc8c(c7F)CN(C7CCC(=O)NC7=O)C8=O)C[C@@H]6C)C5)CC4)ncc3Cl)ccc2n(C(C)C)c1=O (stereo partly shown) [Compound 178]			< 10 nM	≥ 70%
CNC(=O)COc1cc2cc(Nc3nc(N4CCC(O[C@H]5C[C@H](N6CC=C(c7ccc8c(c7F)CN(C7CCC(=O)NC7=O)C8=O)CC6)C5)CC4)ncc3Cl)ccc2n(C(C)C)c1=O (stereo partly shown) [Compound 426, 2-({6-[(5-chloro-2-{4-[(1r,3r)-3-{4-[2-(2,6-dioxopiperidin-3-yl)-4-fluoro-1-oxo-2,3-dihydro-1H-isoindol-5-yl]-1,2,3,6-tetrahydropyridin-1-yl}cyclobutoxy]piperidin-1-yl}pyrimidin-4-yl)amino]-2-oxo-1-(propan-2-yl)-1,2-dihydroquinolin-3-yl}oxy)-N-methylacetamide]	≥ 70%	< 10 nM		
CNC(=O)COc1cc2cc(Nc3nc(N4CCC(O[C@H]5C[C@H](N6CC7(CCN(c8ccc9c(c8C)C(=O)N(C8CCC(=O)NC8=O)C9=O)CC7)C6)C5)CC4)ncc3Cl)ccc2n(C(C)C)c1=O (stereo partly shown) [Compound 418, 2-({6-[(5-chloro-2-{4-[(1r,3r)-3-{7-[2-(2,6-dioxopiperidin-3-yl)-4-methyl-1,3-dioxo-2,3-dihydro-1H-isoindol-5-yl]-2,7-diazaspiro[3.5]nonan-2-yl}cyclobutoxy]piperidin-1-yl}pyrimidin-4-yl)amino]-2-oxo-1-(propan-2-yl)-1,2-dihydroquinolin-3-yl}oxy)-N-methylacetamide]	≥ 70%	< 10 nM		
CNC(=O)COc1cc2cc(Nc3nc(N4CCN(CC5C6CN(c7cccc8c7C(=O)N(C7CCC(=O)NC7=O)C8=O)CC56)CC4)ncc3Cl)ccc2n(C(C)C)c1=O (stereo not shown) [Compound 156, 2-{[6-({5-chloro-2-[4-({3-[2-(2,6-dioxopiperidin-3-yl)-1,3-dioxo-2,3-dihydro-1H-isoindol-4-yl]-3-azabicyclo[3.1.0]hexan-6-yl}methyl)piperazin-1-yl]pyrimidin-4-yl}amino)-2-oxo-1-(propan-2-yl)-1,2-dihydroquinolin-3-yl]oxy}-N-methylacetamide]			< 10 nM	
CNC(=O)COc1cc2c(F)c(Nc3cc(N4CCC(CN5CCC6(CN(c7ccc8c(c7)CN(C7CCC(=O)NC7=O)C8=O)C6)C(F)(F)C5)CC4)ncc3Cl)ccc2n(C(C)C)c1=O (stereo not shown) [Compound 251, 2-{[6-({5-chloro-2-[4-({2-[2-(2,6-dioxopiperidin-3-yl)-1-oxo-2,3-dihydro-1H-isoindol-5-yl]-5,5-difluoro-2,7-diazaspiro[3.5]nonan-7-yl}methyl)piperidin-1-yl]pyridin-4-yl}amino)-5-fluoro-2-oxo-1-(propan-2-yl)-1,2-dihydroquinolin-3-yl]oxy}-N-methylacetamide]	≥ 70%	< 10 nM		
CNC(=O)COc1cc2cc(Nc3nc(N4CCN(CC5CCN(c6ccc(F)c7c6CN(C6CCC(=O)NC6=O)C7=O)CC5)CC4)ncc3Cl)ccc2n(C(C)C)c1=O (stereo not shown) [Compound 120, 2-{[6-({5-chloro-2-[4-({1-[2-(2,6-dioxopiperidin-3-yl)-7-fluoro-1-oxo-2,3-dihydro-1H-isoindol-4-yl]piperidin-4-yl}methyl)piperazin-1-yl]pyrimidin-4-yl}amino)-2-oxo-1-(propan-2-yl)-1,2-dihydroquinolin-3-yl]oxy}-N-methylacetamide]			< 10 nM	50 to 70%
CNC(=O)COc1cc2cc(Nc3nc(N4CCC(O[C@H]5C[C@H](N6CC[C@H](c7ccc8c(c7F)CN(C7CCC(=O)NC7=O)C8=O)[C@@H](O)C6)C5)CC4)ncc3Cl)ccc2n(C(C)C)c1=O (stereo partly drawn) [Compound 284, 2-({6-[(5-chloro-2-{4-[(1r,3r)-3-[(3R,4R)-4-[2-(2,6-dioxopiperidin-3-yl)-4-fluoro-1-oxo-2,3-dihydro-1H-isoindol-5-yl]-3-hydroxypiperidin-1-yl]cyclobutoxy]piperidin-1-yl}pyrimidin-4-yl)amino]-2-oxo-1-(propan-2-yl)-1,2-dihydroquinolin-3-yl}oxy)-N-methylacetamide]	50 to 70%	< 10 nM		
CNC(=O)COc1cc2cc(Nc3nc(N4CCC(N5CCC6(C5)CN(C5CCN(c7ccc8c(c7)CN(C7CCC(=O)NC7=O)C8=O)CC5)C6)CC4)ncc3Cl)ccc2n(C(C)C)c1=O (stereo not shown) [Compound 235, 2-{[6-({5-chloro-2-[4-(2-{1-[2-(2,6-dioxopiperidin-3-yl)-1-oxo-2,3-dihydro-1H-isoindol-5-yl]piperidin-4-yl}-2,6-diazaspiro[3.4]octan-6-yl)piperidin-1-yl]pyrimidin-4-yl}amino)-2-oxo-1-(propan-2-yl)-1,2-dihydroquinolin-3-yl]oxy}-N-methylacetamide]	50 to 70%	< 10 nM		
CNC(=O)COc1cc2cc(Nc3nc(N4CCC(O[C@H]5C[C@H](N6CCN(c7ccc8c(c7Cl)CN(C7CCC(=O)NC7=O)C8=O)CC6)C5)CC4)ncc3Cl)ccc2n(C(C)C)c1=O (stereo partly shown) [Compound 181, 2-({6-[(5-chloro-2-{4-[(1r,3r)-3-{4-[4-chloro-2-(2,6-dioxopiperidin-3-yl)-1-oxo-2,3-dihydro-1H-isoindol-5-yl]piperazin-1-yl}cyclobutoxy]piperidin-1-yl}pyrimidin-4-yl)amino]-2-oxo-1-(propan-2-yl)-1,2-dihydroquinolin-3-yl}oxy)-N-methylacetamide]			< 10 nM	≥ 70%
